Laboratory results from publication PMC3443238, “Synthesis and Antiangiogenic Activity of N-Alkylated Levamisole Derivatives” (PLoS ONE, 2012).
pIC50: −log10 of the molar value. Where a name gives a salt, the structure may show the parent alone. Values belong to the compound of their own block, whether it stands above or below them.

Experiments:
[1] = molecular target: T1, bovine kidney tissue non-specific alkaline phosphatase (TNAP) (Bos taurus, UniProt P09487); experiment: Alkaline phosphatase assay (p-nitrophenyl phosphate), bovine kidney enzyme; assay type: biochemical
T1 construct: alkaline phosphatase (0.01 U/mL) from human placenta or bovine kidneys; from tissue; host or cells: bovine kidneys
T1 sequence (P09487 18-499 limits assumed): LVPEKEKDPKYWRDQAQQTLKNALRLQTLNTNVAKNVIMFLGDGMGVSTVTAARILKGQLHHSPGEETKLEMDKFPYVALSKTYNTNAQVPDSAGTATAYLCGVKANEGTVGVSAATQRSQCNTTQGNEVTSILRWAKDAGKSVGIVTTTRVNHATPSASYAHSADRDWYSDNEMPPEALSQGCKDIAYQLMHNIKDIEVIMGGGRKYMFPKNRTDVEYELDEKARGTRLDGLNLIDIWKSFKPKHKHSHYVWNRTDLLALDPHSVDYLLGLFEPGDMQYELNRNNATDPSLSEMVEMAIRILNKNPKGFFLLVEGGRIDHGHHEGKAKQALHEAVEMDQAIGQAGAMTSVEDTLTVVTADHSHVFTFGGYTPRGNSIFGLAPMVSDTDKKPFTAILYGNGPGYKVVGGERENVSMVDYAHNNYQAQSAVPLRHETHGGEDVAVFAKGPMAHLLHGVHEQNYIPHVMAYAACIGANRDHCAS
Experimental: (§1) The levamisole derivatives were diluted to 2.5, 5 and 10 mM in DMSO. Samples (10 µL) and 90 µL solution of alkaline phosphatase (0.01 U/mL) from human placenta or bovine kidneys diluted in substrate buffer were added to a 96-well microtiter plate and incubated for 35 minutes at room temperature. Hereafter, 100 µL p-nitrophenyl phosphate (2 mg/mL) were added, and the plate was read at 405 nm with background subtraction at 650 nm on a Versamax Elisa reader (Molecular Devices, Sunnyvale, CA, USA) after 24 and 35 min. Results were obtained as the mean of double determinations. The EC50 values were read from the curve at half maximal absorbance.

[2] = system: human umbilical vein endothelial cells (HUVECs) in co-culture with normal human dermal fibroblasts (NHDF); experiment: in vitro angiogenesis assay, HUVEC-NHDF co-culture, CD31 immunostaining; assay type: cell-based; conditions: for inhibition of angiogenesis compared with (S)-levamisole hydrochloride (1): Figure 5, Table 1
Experimental: The antiangiogenic effects of the compounds were determined in a previously developed assay, designed to evaluate the growth and differentiation of human umbilical vein endothelial cells (HUVECs) in co-culture with normal human dermal fibroblasts (NHDF). […] The cluster morphology known from (S)-levamisole, was also observed for tetramisole (2) (Figure 5B and Table 1), p-bromolevamisole (3) (Figure 5C and Table 1), and N-methyllevamisoles (7a, b), with the latter mentioned showing a slightly more pronounced effect (Figure 5E and F, Figure 6 A–D, Table 1). […] Compound 4 (Figure 5D and Table 1), on the other hand, inhibited the capillary network formation to give small cords exclusively, which is reminiscent of the effect of suramin (5) (Figure 5N and Table 1), another well-known angiogenesis inhibitor [44], [51].
Co-culture cell assays were performed according to a method described previously, [44]. Briefly, 10^3 NHDFs were cultured in each well of a 96-well microtiter plate in NHDF standard medium (100 μL, FGM-2 Bullet kit) at 37°C in an atmosphere containing 5% CO2. After 3 days the medium was removed and 10^3 HUVECs were seeded onto the NHDF in TFSM2 medium (135 μL). The samples of the individual compounds were prepared by weight and dissolved in a concentration of […] in DMSO, PBS, or Milli-Q water followed by pH adjustment, and sterile filtration through 0.22 μm filters. Medium, buffer controls or test samples of 15 µL were added to each well containing the HUVEC–NHDF co-culture and were incubated for 3 days. Experiments were repeated 2–4 times with identical results.
HUVEC and fibroblasts were stained with a CD31 antibody according to the method previously described, [44]. Briefly, the cells were washed with PBS, fixed with ethanol, blocked with TTN buffer, incubated with mouse anti-human CD31 diluted 1∶250 in TTN buffer, washed in TTN buffer and incubated with alkaline phosphatase-conjugated goat anti-mouse IgG diluted 1∶1000 in TTN buffer. Bound antibody was subsequently visualised with BCIP/NBT and inspected in an Olympus IX70 microscope and photographed with an Olympus DP12 digital camera (Magnification: 40x). Image analysis was carried out using the program AnalySIS (Soft Imaging Systems, Münster, Germany).

[3] = molecular target: T2, human placenta alkaline phosphatase (HPAP) (Homo sapiens, UniProt P05187); experiment: Alkaline phosphatase assay (p-nitrophenyl phosphate), human placenta enzyme; assay type: biochemical
T2 construct: alkaline phosphatase (0.01 U/mL) from human placenta or bovine kidneys; from tissue; host or cells: human placenta
Experimental: as §1

sirtuin 1 (SIRT1) [4] = molecular target: T3, sirtuin 1 (SIRT1) (Homo sapiens, UniProt Q96EB6); experiment: SIRT1 inhibition assay (Fluor-de-Lys fluorogenic); assay type: biochemical; conditions: for inhibition of SIRT1 deacetylase activity: standard fluorogenic assay in vitro
T3 construct: purchased Biomol BML-AK555
Experimental: The assay was performed according to protocols provided by the supplier (Biomol, BML-AK555). Briefly, the dose–response experiments were performed in black low binding NUNC 96-well microtiter plates. The dilution series were prepared in Milli-Q water from 100 mM DMSO stock solutions. Fluor-de-Lys SIRT1 substrate (250 μM), NAD^+ ([…]), and SIRT1 (2 U/well) were incubated in SIRT assay buffer prepared as described in the Biomol product sheets [Tris/Cl (50 mM), NaCl (137 mM), KCl (2.7 mM), MgCl2 (1 mM), pH 8.0, 1 mg/mL bovine serum albumin] in the presence or absence of the appropriate dilution of compound 7a or suramin. After 1 hour at 37°C, nicotinamide (2 mM) and developer (50 μL, 2×) were added, and the assay development was allowed to proceed for 15–30 minutes at room temperature, before the plate was read using a Tecan plate reader with excitation at 360 nm and emission at 460 nm. Two individual assays were performed in duplicate.

sirtuin 1 (SIRT1) [5] = molecular target: T3, sirtuin 1 (SIRT1); experiment: SIRT1 activation assay (Fluor-de-Lys fluorogenic); assay type: biochemical; conditions: Figure 7
Experimental: The assay was essentially performed as described above for the deacetylase inhibition, but with different concentrations of enzyme and substrate [Fluor-de-Lys SIRT1 substrate (25 μM), NAD^+ (25 μM), SIRT1 (1 U/well)], and using resveratrol as positive control. Two individual assays were performed in duplicate.

[6] = 1 mM, medium control 10.2, DMSO 8.4
[7] = concentration not given, results not shown

T2 sequence (P05187 23-506 limits assumed): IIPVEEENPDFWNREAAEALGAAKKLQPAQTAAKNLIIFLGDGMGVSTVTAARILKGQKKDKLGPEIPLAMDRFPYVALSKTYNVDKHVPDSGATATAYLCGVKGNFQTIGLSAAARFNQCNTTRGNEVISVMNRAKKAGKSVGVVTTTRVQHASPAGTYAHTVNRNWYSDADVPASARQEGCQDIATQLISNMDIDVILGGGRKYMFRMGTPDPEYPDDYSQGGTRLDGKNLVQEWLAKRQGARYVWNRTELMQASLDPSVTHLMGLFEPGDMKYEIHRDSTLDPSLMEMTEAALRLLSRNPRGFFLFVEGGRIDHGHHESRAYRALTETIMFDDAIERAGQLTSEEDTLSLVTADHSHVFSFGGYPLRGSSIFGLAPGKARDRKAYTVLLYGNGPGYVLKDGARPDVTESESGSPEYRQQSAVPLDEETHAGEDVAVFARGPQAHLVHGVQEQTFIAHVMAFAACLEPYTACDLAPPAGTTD
T3 sequence (Q96EB6 whole entry): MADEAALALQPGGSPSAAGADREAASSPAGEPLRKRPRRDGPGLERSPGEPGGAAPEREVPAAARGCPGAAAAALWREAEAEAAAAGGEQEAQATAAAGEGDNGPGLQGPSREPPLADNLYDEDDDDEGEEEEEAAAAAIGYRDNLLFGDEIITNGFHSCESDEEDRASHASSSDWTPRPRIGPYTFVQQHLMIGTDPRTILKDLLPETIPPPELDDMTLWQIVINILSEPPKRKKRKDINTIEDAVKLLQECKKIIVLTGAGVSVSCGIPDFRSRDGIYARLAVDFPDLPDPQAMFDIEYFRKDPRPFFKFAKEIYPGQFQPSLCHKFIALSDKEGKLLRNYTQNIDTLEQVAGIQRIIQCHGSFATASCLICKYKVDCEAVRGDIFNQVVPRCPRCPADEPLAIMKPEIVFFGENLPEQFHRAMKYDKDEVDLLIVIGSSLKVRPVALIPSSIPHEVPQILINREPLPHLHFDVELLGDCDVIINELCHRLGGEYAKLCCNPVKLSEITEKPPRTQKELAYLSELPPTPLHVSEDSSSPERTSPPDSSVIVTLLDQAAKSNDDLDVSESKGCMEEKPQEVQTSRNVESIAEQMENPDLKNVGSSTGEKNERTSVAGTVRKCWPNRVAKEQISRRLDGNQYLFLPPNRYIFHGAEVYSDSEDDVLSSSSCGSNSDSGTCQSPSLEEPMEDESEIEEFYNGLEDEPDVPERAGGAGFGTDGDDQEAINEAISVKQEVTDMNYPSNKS

pIC50 [1]: < 2.70
pIC50 [3]: < 2.70
SMILES: c1ccc([C@H]2CN3CCSC3=[N+]2CC2CCCCC2)cc1 [Compound 12, (S)-N-Cyclohexylmethylenelevamisole]
Area % (percent of the area covered by HUVEC as observed by CD31 staining) ([2]; 0.1 mM): 3.7%
Grading ([2]; 0.1 mM): +
Morphology ([2]; 0.1 mM): Mixed

SMILES: CCCC[N+]1=C2SCCN2C[C@@H]1c1ccccc1 [Compound 10, (S)-N-(n-Butyl)-levamisole trifluoroacetate]
Area % (percent of the area covered by HUVEC as observed by CD31 staining) ([2]; 0.3 mM): 5.0%
Grading ([2]; 0.3 mM): +
Morphology ([2]; 0.3 mM): Mixed

SMILES: CC(C)[N+]1=C2SCCN2C[C@@H]1c1ccccc1 [Compound 9, (S)-N-Isopropyllevamisole trifluoroacetate]
pIC50 [1]: < 2.70
Area % (percent of the area covered by HUVEC as observed by CD31 staining) ([2]; 0.6 mM): 2.6%
Grading ([2]; 0.6 mM): +
Morphology ([2]; 0.6 mM): Mixed
pIC50 [3]: < 2.70

SMILES: OCCN(CCO)C(CO)(CO)CO [BIS-TRIS, reference compound]
effect in the angiogenesis assay ([2]; 10 mM): Neither BIS-TRIS nor BICINE showed any effects

pIC50 [1]: < 2.70
inhibition at 1 µM (sirtuin 1 (SIRT1) [4]; read-out: SIRT1 inhib. (1 μM)): > 90%
inhibition of SIRT1 deacetylase activity (sirtuin 1 (SIRT1) [4]): potently inhibited SIRT1
SMILES: Cc1ccc(C(=O)Nc2ccc(S(=O)(=O)O)c3cc(S(=O)(=O)O)cc(S(=O)(=O)O)c23)cc1NC(=O)c1cccc(NC(=O)Nc2cccc(C(=O)Nc3cc(C(=O)Nc4ccc(S(=O)(=O)O)c5cc(S(=O)(=O)O)cc(S(=O)(=O)O)c45)ccc3C)c2)c1 [Compound 5, suramin, reference compound]
Morphology ([2]; 1 mM): Cords
Area % (percent of the area covered by HUVEC as observed by CD31 staining) [2, 6]: 2.2%

SMILES: O=C(O)CN(CCO)CCO [BICINE, reference compound]
effect in the angiogenesis assay ([2]; 10 mM): Neither BIS-TRIS nor BICINE showed any effects

SMILES: O=S(=O)(O)CCN1CCN(CCO)CC1 [HEPES, reference compound]
effect in the angiogenesis assay [2, 7]: neither showed an effect

SMILES: c1ccc(C[N+]2=C3SCCN3C[C@@H]2c2ccccc2)cc1 [Compound 11a, N-benzyllevamisole bromide]
Area % (percent of the area covered by HUVEC as observed by CD31 staining) ([2]; 0.7 mM): 2.8%
Grading ([2]; 0.7 mM): +
Morphology ([2]; 0.7 mM): Mixed

SMILES: CC[N+]1=C2SCCN2C[C@@H]1c1ccccc1 [Compound 8a, N-ethyllevamisole iodide]
pIC50 [1]: < 2.70
Area % (percent of the area covered by HUVEC as observed by CD31 staining) ([2]; 0.7 mM): 5.2%
Grading ([2]; 0.7 mM): +
Morphology ([2]; 0.7 mM): Mixed
pIC50 [3]: < 2.70

SMILES: C[N+]1=C2SCCN2C[C@@H]1c1ccccc1 [Compound 7a, N-methyllevamisole triflate]
pIC50 [1]: 4.00
activation of SIRT1 compared to resveratrol (sirtuin 1 (SIRT1) [5]): ruled out interaction with this regulatory enzyme
Grading ([2]; 1 mM): ++++ (clusters with area <4%)
Morphology ([2]; 1 mM): Clusters
Area % (percent of the area covered by HUVEC as observed by CD31 staining) [2, 6]: 2.8%
inhibition of angiogenesis compared with (S)-levamisole hydrochloride (1) [2]: more potent than (S)-levamisole hydrochloride
concentration at which the cluster-inducing effect is already exerted (titration) ([2]; titration experiments, Figure 6F): 30 µM
SIRT1 inhib. (1 μM) (sirtuin 1 (SIRT1) [4]; 1 μM): Not active^b
deacetylation compared to the control wells (sirtuin 1 (SIRT1) [4]; at 10 μM and 100 μM, data not shown): elevated values of deacetylation
inhibition of SIRT1 deacetylase activity (sirtuin 1 (SIRT1) [4]): no inhibitory effect
pIC50 [3]: < 2.70

SMILES: Cn1ccnc1 [N-methylimidazole, reference compound]
effect in the angiogenesis assay ([2]; 1 mM): no effect
effect in the angiogenesis assay ([2]; 10 mM): had an effect

SMILES: NC(CO)(CO)CO [TRIZMA, reference compound]
effect in the angiogenesis assay [2, 7]: neither showed an effect

SMILES: c1ccc(C2CN3CCSC3=N2)cc1 (racemic) [Compound 2, (±)-levamisole, reference compound]
pIC50 [1]: 3.00
Grading ([2]; 1 mM): ++ (clusters with area >4%)
Morphology ([2]; 1 mM): Clusters
Area % (percent of the area covered by HUVEC as observed by CD31 staining) [2, 6]: 8.0%
inhibition of angiogenesis compared with (S)-levamisole hydrochloride (1) [2]: same effect as the enantiomerically pure parent compound
pIC50 [3]: 2.92

pIC50 [1]: < 2.70
pIC50 [3]: 3.15
SMILES: Brc1ccc([C@H]2CN3CCSC3=N2)cc1 [Compound 3, (–)-p-bromolevamisole oxalate, reference compound]
Grading ([2]; 1 mM): ++++ (clusters with area <4%)
Morphology ([2]; 1 mM): Clusters
Area % (percent of the area covered by HUVEC as observed by CD31 staining) [2, 6]: 3.4%
inhibition of angiogenesis compared with (S)-levamisole hydrochloride (1) [2]: more potent than (S)-levamisole hydrochloride

SMILES: C[N+]1=C2SCCN2C[C@@H]1c1ccccc1 [Compound 7b, N-methyllevamisole trifluoroacetate]
pIC50 [1]: < 2.70
inhibition of tissue non-specific alkaline phosphatase ([1]; at 2 mM or higher): no inhibition
Grading ([2]; 1 mM): ++++ (clusters with area <4%)
Morphology ([2]; 1 mM): Clusters
Area % (percent of the area covered by HUVEC as observed by CD31 staining) [2, 6]: 3.3%
inhibition of angiogenesis compared with (S)-levamisole hydrochloride (1) [2]: more potent than (S)-levamisole hydrochloride
pIC50 [3]: < 2.70

SMILES: CC[N+]1=C2SCCN2C[C@@H]1c1ccccc1 [Compound 8b, N-ethyllevamisole trifluoroacetate]
Area % (percent of the area covered by HUVEC as observed by CD31 staining) ([2]; 0.2 mM): 5.4%
Grading ([2]; 0.2 mM): +
Morphology ([2]; 0.2 mM): Mixed

SMILES: Nc1ccc(-c2cn3c(n2)SCC3)cc1 [Compound 4, 4-(2,3-dihydroimidazo-[2,1-b]thiazol-6-yl)aniline, reference compound]
Grading ([2]; 1 mM): +++ (cords with area <4%)
Morphology ([2]; 1 mM): Cords
Area % (percent of the area covered by HUVEC as observed by CD31 staining) [2, 6]: 2.0%
inhibition of angiogenesis compared with (S)-levamisole hydrochloride (1) [2]: more potent than (S)-levamisole hydrochloride

SMILES: c1ccc(C[N+]2=C3SCCN3C[C@@H]2c2ccccc2)cc1 [Compound 11b, N-benzyllevamisole trifluoroacetate]
pIC50 [1]: < 2.70
Area % (percent of the area covered by HUVEC as observed by CD31 staining) ([2]; 0.4 mM): 4.0%
Grading ([2]; 0.4 mM): +
Morphology ([2]; 0.4 mM): Mixed
pIC50 [3]: < 2.70

SMILES: O=C(O)CNC(CO)(CO)CO [TRICINE, reference compound]
effect in the angiogenesis assay [2, 7]: neither showed an effect
